Results published in US20230381291A1, “TUMOR-ASSOCIATED PEPTIDES AND USES THEREOF” (HUMANITAS MIRASOLE S.P.A., priority 2020, published 2023).
Where a SMILES comes first, the peptide text is derived from it. The star is where a group is joined. Cbz = O=C(OCc1ccccc1)*

Experiments:
Format in all cases: cell-based, human
[1] = tested on: Salmonella-infected 624-38 melanoma cells; experiment: IFN-gamma release by CTL-Vax on Thp1 loaded with conditioned supernatant; conditions: supernatant of inhibitor-treated Salmonella-infected 624-38 loaded on Thp1, ratio 1:1, 72 hours
Protocol: (§1) In order to elucidate the Salmonella mechanism of action, the present inventors employed several inhibitors in their in vitro experiments, including: Heptanol (Sigma, 1 mM), hemichannel blocker; proteasome inhibitors: MG132 (Sigma, 20 μM) and Epoxomycin (Sigma, 500 nM); UPR-inhibitor 4μ8c (10 μM).
(§2) Human acute monocytic leukemia Thp1 cell line was loaded either with antigens at different concentration (20 uM-1.25 uM) or with conditioned medium and used to stimulate CTL-Vax (ratio 1:1). Cells supernatant was collected after 72 hours and IFN-gamma production was measured by ELISA (R&D). IFN-gamma released by CTLs co-cultured with unloaded Thp1 (spontaneous IFN-gamma release) was subtracted from IFN measured upon Ag-stimulation. Specificity of the activation was further assessed using an HLA-I pan blocker as control (10 ug/ml, Clone W6/32).

[2] = tested on: Salmonella-infected 624-38 melanoma cells; experiment: HLA-A*02:01-peptide binding assay on T2 cells (peptide release into supernatant); conditions: 624-38 cells treated with inhibitor; 4μ8c 10 μM, MG132 20 μM, Epoxomycin 500 nM
Protocol: as §1
Single bacterial colonies were grown overnight and restarted the next day to reach an absorbance at 600 nm of 0.6 corresponding to 0.6×10^9 colony-forming units (CFUs)/ml. Murine and human melanoma cells were incubated with bacteria for 90 minutes, at a cell-to-bacteria ratio of 1:50, in the appropriate medium added with L-Glutamine without antibiotics. Cells were washed with medium and incubated in medium supplemented with gentamicin ([…]) for 18 hours to kill extracellular bacteria. At the end of the incubation cells were harvested and then lysed for protein analysis while supernatant was collected and filtered through 0.22 μm filter eliminate potentially still alive bacteria.
To assess peptides enrichment in the supernatant from tumor cell cultures following Salmonella treatment, T2 cells were incubated overnight at 37° C. at 2×10^5 cells/well in serum-free RPMI medium either with 100 μL of supernatant or with Mart-126-35 peptide (1 μM and 10 μM) as a positive control. […]

CTL-Vax = experiment: IFN-gamma assay for peptide recognition by CTLs (peptide-loaded Thp1, ELISA); conditions: synthesized peptides loaded on Thp1 at 20 μM-1.25 μM, ratio 1:1, 72 hours
Protocol: as §2

| Compound | CTL-Vax activation upon supernatant stimulation (IFN-gamma release) [1] | peptide release prompted by Salmonella infection (HLA-A*02:01 MFI on T2 cells) [2] | IFN-gamma production by CTL-VAX (CTL-Vax) |
| --- | --- | --- | --- |
| CC(C)C[C@@H](C=O)NC(=O)[C@H](CC(C)C)NC(=O)[C@H](CC(C)C)NC(=O)OCc1ccccc1 [MG132] (Cbz-Leu-Leu-Leu-aldehyde) | affected | affected |  |
| Cc1cc(=O)oc2c(C=O)c(O)ccc12 [4μ8c] | lower activation | significantly impaired peptide release |  |
| TMA747-44: candidate peptide from melanoma secretome that did not induce IFN-gamma production by CTL-VAX (AAGKGPLATGGIKKSGKK) |  |  | all except TMA747-44 (SEQ ID NO. 5) were able to induce IFN-gamma production |
